Values joined by “and” are separate entries in the source; they are usually repeats but may differ in a detail not shown here. Equal values may be shown once. Active and inactive are the calls of the source. Where only a bound is given, the exact number is not on record here.

A short description of assay [1]: Luminescence Cell-Based Dose Confirmation HTS to Identify Inhibitors of Platelet Dense Granule Release. [Related pubchem assays: 1663 (Primary HTS), 1678 (Summary of Project)]. It is filed as functional.
Assay [2] addresses Luciferin 4-monooxygenase (Photinus pyralis, UniProt P08659). Description: inhibition of purified Photinus pyralis luciferase – biochemical, luminescence, dose response (AID 1891).
In assay [3] the target is Cytochrome P450 2D6 (Homo sapiens, UniProt P10635).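 Further: CYP2D6 member of a cytochrome P450 panel assay.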
Sequence of Cytochrome P450 2D6 (P10635 whole entry): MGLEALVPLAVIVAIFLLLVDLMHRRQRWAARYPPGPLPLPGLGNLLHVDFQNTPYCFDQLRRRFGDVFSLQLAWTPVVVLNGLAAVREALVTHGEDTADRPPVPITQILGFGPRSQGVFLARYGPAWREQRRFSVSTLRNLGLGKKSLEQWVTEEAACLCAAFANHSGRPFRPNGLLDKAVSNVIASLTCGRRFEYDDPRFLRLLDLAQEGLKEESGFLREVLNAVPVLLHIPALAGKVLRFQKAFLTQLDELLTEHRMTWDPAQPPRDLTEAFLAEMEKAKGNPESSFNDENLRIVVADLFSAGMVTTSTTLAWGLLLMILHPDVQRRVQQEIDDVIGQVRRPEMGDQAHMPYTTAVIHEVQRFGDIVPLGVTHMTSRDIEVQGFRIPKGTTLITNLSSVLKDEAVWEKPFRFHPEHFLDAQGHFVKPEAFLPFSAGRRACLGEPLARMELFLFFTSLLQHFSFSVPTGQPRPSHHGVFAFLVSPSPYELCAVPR
Assay [4] addresses T1, Cytochrome P450 1A2 (Homo sapiens, UniProt P05177).
T1 sequence (P05177 whole entry): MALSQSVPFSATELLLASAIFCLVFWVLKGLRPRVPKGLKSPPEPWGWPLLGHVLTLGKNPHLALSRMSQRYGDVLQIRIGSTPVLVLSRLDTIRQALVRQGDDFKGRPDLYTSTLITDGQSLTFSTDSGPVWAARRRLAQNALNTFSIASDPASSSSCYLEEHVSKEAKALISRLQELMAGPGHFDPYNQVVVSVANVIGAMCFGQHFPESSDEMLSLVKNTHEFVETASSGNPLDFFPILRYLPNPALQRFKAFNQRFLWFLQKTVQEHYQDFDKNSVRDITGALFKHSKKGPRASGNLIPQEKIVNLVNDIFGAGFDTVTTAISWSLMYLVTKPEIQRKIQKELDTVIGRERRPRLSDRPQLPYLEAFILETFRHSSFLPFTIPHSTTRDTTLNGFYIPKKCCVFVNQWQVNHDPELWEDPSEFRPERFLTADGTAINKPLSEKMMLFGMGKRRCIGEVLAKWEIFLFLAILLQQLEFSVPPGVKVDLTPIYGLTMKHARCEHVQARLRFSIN

The nature of assay [5]: Luminescence Cell-Based Dose Response HTS to Identify Inhibitors of 5'UTR Stem-Loop Driven Prion Protein mRNA Translation in H4 Neuroglioblastoma Cells. [Related pubchem assays: 1827 (Project Summary), 1813 (Primary HTS)]. It is filed as functional.
Assay [6] in a line: alpha-synuclein stem-loop luciferase translation blockers – H4 neuroglioma cells, luminescence, confirmation (AID 1988). In kind it is functional, cell-based.
Assay [7] is described as follows: luciferase reporter signal suppression in cells – H4 neuroglioma cells, luminescence, dose response (AID 1990). In kind it is functional, cell-based.
Assay [8] has as its system Streptococcus sp. 'group A'. Put plainly: Streptococcus pyogenes SK(-)GAS viability under kanamycin – luminescence, BacTiterGlo, confirmation, counter-screen for streptokinase expression inhibitor project, dose response (AID 1900). It is filed as functional, organism-based.
The target of assay [9] is T2, Streptokinase A (Streptococcus pyogenes serotype M1, UniProt P10520).
T2 sequence (P10520 whole entry): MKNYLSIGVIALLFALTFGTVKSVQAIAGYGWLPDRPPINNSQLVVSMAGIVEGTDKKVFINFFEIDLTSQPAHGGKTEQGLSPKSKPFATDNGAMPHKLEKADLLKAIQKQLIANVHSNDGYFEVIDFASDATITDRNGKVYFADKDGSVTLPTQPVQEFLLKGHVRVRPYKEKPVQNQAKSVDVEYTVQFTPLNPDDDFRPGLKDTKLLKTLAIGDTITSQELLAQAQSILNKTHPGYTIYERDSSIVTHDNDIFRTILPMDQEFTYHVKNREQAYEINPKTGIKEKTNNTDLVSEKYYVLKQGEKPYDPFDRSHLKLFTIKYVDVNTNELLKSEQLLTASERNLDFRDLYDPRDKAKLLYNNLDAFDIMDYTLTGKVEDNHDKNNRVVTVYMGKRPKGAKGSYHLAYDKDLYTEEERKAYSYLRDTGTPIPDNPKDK
Put plainly: viability-normalized secreted streptokinase activity reduction – plasminogen activation absorbance, OD405, dose response (AID 1914).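 Further: secreted streptokinase activity via plasminogen activation per viability signal from cell pellet.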 It is filed as functional, Streptococcus pyogenes M1 GAS.

Assay [10] is described as follows: Trypanosoma cruzi growth suppression in host cells – NIH3T3 host cells, beta-gal luminescence, confirmation (AID 2044).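 Further: intracellular parasites grown in NIH/3T3 mouse fibroblasts as host cells; luminescent beta-galactosidase reporter signal from transgenic T. cruzi replicating inside host cells; inhibitors lower the luminescence signal.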 It is filed as functional, cell-based.
Assay [11] deals with Streptococcus. Put plainly: GAS UMAA2166 growth inhibition – luminescence, BacTiterGlo, counter-screen for streptokinase expression inhibitor project, dose response (AID 1915).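 Further: potency for reduction of bacterial viability or growth.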 In kind it is functional, organism-based.
Assay [12] is described as follows: NIH3T3 cell viability loss – ATP luminescence, mouse fibroblasts, counter-screen, dose response (AID 2010).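 Further: cells exposed to compound for about 90 hours before reading.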 It is filed as functional, cell-based.
The target of assay [13] is Cytochrome P450 3A4 (Homo sapiens, UniProt P08684).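 Further: CYP3A4 tested as one member of a cytochrome P450 panel screen.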
Sequence of Cytochrome P450 3A4 (P08684 whole entry): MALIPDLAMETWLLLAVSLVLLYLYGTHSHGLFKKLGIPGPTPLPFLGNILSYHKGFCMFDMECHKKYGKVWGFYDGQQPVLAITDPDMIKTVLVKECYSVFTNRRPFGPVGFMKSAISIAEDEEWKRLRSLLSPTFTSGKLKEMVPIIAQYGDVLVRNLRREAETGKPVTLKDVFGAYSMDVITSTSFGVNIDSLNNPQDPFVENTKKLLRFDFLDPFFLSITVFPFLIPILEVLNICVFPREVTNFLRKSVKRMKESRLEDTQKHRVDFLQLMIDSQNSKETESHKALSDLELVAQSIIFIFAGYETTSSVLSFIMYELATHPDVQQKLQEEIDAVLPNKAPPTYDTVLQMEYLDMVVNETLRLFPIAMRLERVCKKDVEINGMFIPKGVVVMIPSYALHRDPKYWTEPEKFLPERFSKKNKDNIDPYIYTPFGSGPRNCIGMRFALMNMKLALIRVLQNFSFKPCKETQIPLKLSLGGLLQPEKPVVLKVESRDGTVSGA
For assay [14], the target named is Cytochrome P450 2C9 (Homo sapiens, UniProt P11712).
Sequence of Cytochrome P450 2C9 (P11712 whole entry): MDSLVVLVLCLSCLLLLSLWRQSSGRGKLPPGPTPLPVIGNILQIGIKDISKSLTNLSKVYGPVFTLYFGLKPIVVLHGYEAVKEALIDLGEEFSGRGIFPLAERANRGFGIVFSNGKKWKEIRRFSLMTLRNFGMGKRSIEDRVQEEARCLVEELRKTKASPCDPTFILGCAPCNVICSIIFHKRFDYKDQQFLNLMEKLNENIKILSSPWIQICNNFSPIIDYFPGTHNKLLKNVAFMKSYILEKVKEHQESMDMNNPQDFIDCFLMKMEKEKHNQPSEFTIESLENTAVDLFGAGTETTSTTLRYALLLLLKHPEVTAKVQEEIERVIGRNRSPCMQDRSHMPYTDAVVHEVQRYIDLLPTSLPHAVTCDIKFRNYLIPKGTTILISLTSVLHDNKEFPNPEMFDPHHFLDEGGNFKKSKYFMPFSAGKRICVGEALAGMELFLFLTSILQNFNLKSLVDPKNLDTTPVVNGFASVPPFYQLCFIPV
The target of assay [15] is Cytochrome P450 2C19 (Homo sapiens, UniProt P33261). Description: Cytochrome panel assay with activity outcomes. Panel member name: p450-cyp2c19 Compounds with AC50 equal or less than 10 uM are considered active. In kind it is functional. To be noted: read-out: AC50.
Sequence of Cytochrome P450 2C19 (P33261 whole entry): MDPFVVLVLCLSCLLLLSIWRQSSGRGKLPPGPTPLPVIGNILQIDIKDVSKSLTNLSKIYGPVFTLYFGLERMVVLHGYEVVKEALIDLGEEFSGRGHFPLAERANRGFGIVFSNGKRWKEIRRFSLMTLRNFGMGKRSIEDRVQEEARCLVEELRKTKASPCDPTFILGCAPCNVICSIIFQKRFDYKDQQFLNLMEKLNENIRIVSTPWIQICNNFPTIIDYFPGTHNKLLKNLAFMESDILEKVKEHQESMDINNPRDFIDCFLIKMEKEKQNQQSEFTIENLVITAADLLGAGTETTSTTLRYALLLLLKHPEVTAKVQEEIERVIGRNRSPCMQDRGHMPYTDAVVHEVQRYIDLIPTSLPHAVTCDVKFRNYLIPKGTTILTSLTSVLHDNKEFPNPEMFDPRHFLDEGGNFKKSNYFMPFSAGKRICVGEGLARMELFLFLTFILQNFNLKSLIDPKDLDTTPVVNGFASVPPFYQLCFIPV

Sequence of Luciferin 4-monooxygenase (P08659 whole entry): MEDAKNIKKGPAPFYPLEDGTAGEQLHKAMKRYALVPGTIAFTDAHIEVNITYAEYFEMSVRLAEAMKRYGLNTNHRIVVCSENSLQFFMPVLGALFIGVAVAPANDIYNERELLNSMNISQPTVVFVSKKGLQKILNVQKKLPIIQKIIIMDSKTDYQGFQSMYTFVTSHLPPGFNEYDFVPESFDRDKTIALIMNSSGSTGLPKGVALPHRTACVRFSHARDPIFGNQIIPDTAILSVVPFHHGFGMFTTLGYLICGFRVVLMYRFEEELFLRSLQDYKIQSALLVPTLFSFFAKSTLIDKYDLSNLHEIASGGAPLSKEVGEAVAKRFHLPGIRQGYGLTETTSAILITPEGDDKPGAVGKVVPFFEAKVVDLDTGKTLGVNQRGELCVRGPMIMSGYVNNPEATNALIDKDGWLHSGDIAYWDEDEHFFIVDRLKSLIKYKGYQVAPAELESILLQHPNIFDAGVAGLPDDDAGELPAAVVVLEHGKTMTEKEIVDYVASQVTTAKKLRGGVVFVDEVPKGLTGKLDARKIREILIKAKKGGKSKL

With `Cc1ccc(CN(C(=O)c2csnn2)C(C(=O)NC2CCCC2)c2ccc(C)o2)cc1` (centres undefined), the EC50 in [1] is > 112 µM (not active); in assay [2], 67.6 µM (active).
As for `CC(C)n1nc(C(=O)Nc2ccccc2N2CCOCC2)c2ccccc2c1=O`, the EC50 is 26.7 µM (active) in [1] and > 112 µM (not active) in assay [2].
Consider `COC(=O)c1cccc([N+](=O)[O-])c1CN1CCCC(C(N)=O)C1` (centres undefined), for which the EC50 in [1] and in assay [2] was > 112 µM (not active) throughout.
Take `COC(=O)[C@@]1(Cc2ccccc2)[C@H]2c3cc(C(=O)N4CCCC4)n(Cc4ccsc4Br)c3C[C@H]2CN1C(=O)c1ccccc1`: in [3], the AC50 was 12.6 µM (inconclusive).
Turning to `COC(=O)[C@@]1(Cc2ccccc2)[C@H]2c3cc(C(=O)N4CCCC4)n(Cc4ccc(O)c(OC)c4)c3C[C@H]2CN1C(=O)c1ccccc1`, the AC50 in assay [3] was 20 µM (inconclusive); in [4], 25.1 µM (inconclusive).
Take `C[C@@H](C(=O)Nc1ccc2ccccc2c1)[C@@H]1C[C@@]1(C)[C@@H](NC(=O)OCc1ccccc1)c1ccccc1`: in assay [3], the AC50 is 12.6 µM (inconclusive).
Turning to `COc1cc2c(cc1OC)-c1cc(NC3CCCCC3)nc(=O)n1CC2`, the EC50 in [5] is > 120 µM (not active); in [6] it was 33.2 µM (active); in [7], 20 µM (active); in [1] it was 2.24 µM (active); in [2] it was > 112 µM (not active).
`Cn1ccc2cc3c(cc21)CCN3C(=O)Nc1cccnc1`: the AC50 in [3] is 31.6 µM (inconclusive) and 20 µM (inconclusive).
For the molecule `O=[N+]([O-])c1cc(S(=O)(=O)Nc2cccc(Cl)c2)ccc1N=Nc1c(O)[nH]c2ccccc12`, the EC50 in assay [8] is 1.69 µM (active); in [9], 27.4 µM (active); in [10] it was 1.31 µM (active); in assay [11], 22.2 µM (active); in [12], > 60 µM (not active).
`O=C(COc1ccc(Cl)cc1)Nc1ccc(Cc2ccncc2)cc1`: the EC50 in assay [1] and in assay [2] was > 112 µM (not active) each time.
Take `COc1cccc(Oc2c(C)oc3c(CN4CCCCC4)c(O)ccc3c2=O)c1`: the EC50 in [1] is 19.2 µM (active); in [2], > 112 µM (not active).
Take `CN(C)C(=O)c1ccc(-c2ccc3ncnc(Nc4ccccc4)c3c2)cc1`: the figures for the AC50 in assay [13] and in [3] were 7.94 µM (inconclusive) and 12.6 µM (inconclusive), respectively.
`CCS(=O)(=O)c1ccc2oc(Nc3ccccc3Cl)nc2c1`: the EC50 is 7.7 µM (active) in assay [1] and 1.75 µM (active) in [2].
Regarding `CCc1nnc(NS(=O)(=O)c2ccc(NCc3cc(Cl)cc(Cl)c3O)cc2)s1`, the results for the EC50 in assay [8], in [9] and in assay [11] were 29.5 µM (active), 50.8 µM (active) and > 150 µM (not active), respectively.
As for `COC(=O)[C@@]1(Cc2ccc(F)cc2)[C@H]2c3cc(C(=O)N(C)C)n(Cc4ccc(O)c(OC)c4)c3C[C@H]2CN1C(=O)c1ccccc1`, the AC50 in assay [3] was 20 µM (inconclusive); in assay [4] it was 25.1 µM (inconclusive).
Regarding `Brc1cc(-c2ccccc2)nc(-c2ccccc2)n1`, the EC50 in [8], in assay [9] and in assay [11] was > 150 µM (not active) in each case.
Consider `COC(=O)C1=C(C)N=C2SCCC(=O)N2C1c1ccc(OC(=O)c2ccco2)cc1` (centres undefined), for which the EC50 in [1] and in assay [2] was > 112 µM (not active) throughout.
As to `Cc1nn(C(C)C(=O)N2CCc3ccccc3C2)c(=O)c2cc3occc3n12` (centres undefined), the EC50 in assay [1] and in [2] was > 112 µM (not active) in each case.
Turning to `O=C(N/C(=C/c1cccs1)c1nc2ccccc2[nH]1)c1ccccc1`, the AC50 in assay [3] is 28.2 µM (inconclusive); in [4], 25.1 µM (inconclusive); in assay [14], 7.94 µM (inconclusive).
For `O=C(NC1CCCCC1)C(Cc1ccccc1)N1C(=O)C2C3CCC(C3)C2C1=O` (centres undefined), the values for the concentration at half-maximal activity (AC50) in assay [3] and in assay [14] were 31.6 µM (inconclusive) and 0.1 µM (inconclusive), respectively.
Take `O=S(=O)(Nc1cccc(-c2ccc(N3CCOCC3)nn2)c1)c1ccc(Cl)c(Cl)c1`: the EC50 is 12.6 µM (active) in assay [8], 23.5 µM (active) in assay [9] and 116 µM (active) in assay [11].
In the same order, the values of `COc1ccccc1-n1c(O)cc(=O)nc1SCC(=O)Nc1ccc(C)cc1` are 29.9 µM (active), > 150 µM (not active) and 118 µM (active).
In the same order, the values of `COc1ccccc1CNC(=O)CSc1nc(=O)n(Cc2ccncc2)c2c1CCC2` are > 150 µM (not active), > 150 µM (not active) and > 150 µM (not active).
As to `COc1cccc(Cn2c(=O)cnc3cnc(N4CCN(C)CC4)nc32)c1`, the figures for the AC50 in [3], in assay [4] and in [14] were 20 µM (inconclusive), 25.1 µM (inconclusive) and 25.1 µM (inconclusive), respectively.
Regarding `CC(C)NC[C@H]1CCc2cc(CO)c([N+](=O)[O-])cc2N1`, the AC50 was 6.31 µM (inconclusive) in assay [3] and 10 µM (inconclusive) in [4].
Regarding `CCOCCn1c(CN(Cc2ccccc2)Cc2ccccc2)nc2c1c(=O)[nH]c(=O)n2C`, the AC50 in assay [15] was 17.8 µM (inconclusive); in assay [3] it was 39.8 µM (inconclusive).
As for `O=C(Nc1ccc(Cl)cn1)c1ccc(-c2ccc(Cl)c(Cl)c2)o1`, the EC50 in assay [1] and in assay [2] was > 112 µM (not active) each time.
Turning to `Cc1ccccc1C(=O)N/N=C/c1ccncc1`, in assay [3], the AC50 is 22.4 µM (inconclusive).
Regarding `CC(=O)Nc1nnc(S(=O)(=O)N2CCN(c3ccc([N+](=O)[O-])cc3Cl)CC2)s1`, the EC50 in [9] and in [11] was > 150 µM (not active) each time.
For the molecule `COCCOC(=O)c1c(C)nc(SCC(=O)Nc2ccc(C)cc2)c(C#N)c1-c1ccco1`, the EC50 in assay [9] was > 150 µM (not active); in [11], 53.5 µM (active).

These data come from ChEMBL document CHEMBL1201862, “PubChem BioAssay data set” (2004).
